# Conditions: 3 wt. % in base oil CnF2n+1(CF2CF2CF2O)mCnF2n+1 (viscosity at 40° C.: 210 mm^2/s), stirred under heating, stored at 25° C. for 24 hours
# Procedure: The phosphonic acid ester (3 wt. %) obtained in Example 1 or 7 was added to a base oil of the formula: CnF2n+1(CF2CF2CF2O)mCnF2n+1 (viscosity at 40° C.: 210 mm^2/s), and the mixture was sufficiently stirred under heating. After the mixture was stored at 25° C. for 24 hours, the solubility of the phosphonic acid ester in the base oil was visually observed.
compound,measurement,value
"CCOP(=O)(CCC(F)(F)C(F)(F)C(F)(F)C(F)(F)C(F)(F)CC(F)(F)C(F)(F)C(F)(F)C(F)(F)F)OCC [Example 1, CF3(CF2)3(CH2CF2)(CF2CF2)2(CH2CH2)P(O)(OCH2CH3)2]",solubility of the phosphonic acid ester in the base oil (visually observed),dissolved into an almost transparent solution

# — patent US9120833B2, “Polyfluoroalkylphosphonic acid ester and process for producing the same” (Unimatec Co., Ltd., priority 2009, dated 2015)
